Test results reported in patent publication US20250085201A1, “SUBSTITUTED QUADRUPOLAR FLUORESCENT DYES FOR LIVE CELL IMAGING” (Northwestern University, priority 2023, published 2025).

Key:
Format in all cases: physicochemical
Solubility (qualitative) = conditions: PF6− salt; e.g. MeCN, Me2CO, DMF
[1] = Absolute fluorescence quantum yield (integrating sphere); conditions: 414 nm excitation
[2] = Transient absorption (fsTA/nsTA) and time-resolved fluorescence spectroscopy; conditions: in MeCN; for non-radiative decay rate constant kNR: kNR = kobs(1 − ΦF); for radiative decay rate constant kR: kR = kobsΦF
Source text: The excited-state properties of these quadrupolar dyes were investigated using transient absorption (TA) spectroscopy. The TA data of dyes 1-4 and 6 in MeCN with lex=350 nm (FIGS. 9-12 and 15) show similar spectra with the same general electronic evolution, though with differing kinetics. Following excitation, strong excited-state absorption features appear between ˜450-500 nm along with a strong single peak in the near-infrared region, both of which are associated with Sn←S1 absorptions. The visible bands redshift over the following ˜100 ps, while the near-infrared band peaks first blueshift in the initial ˜10 ps before settling. These near-infrared absorption bands are similar to those observed^59,60 in extended bipyridinium compounds. Following these shifts, the excited states decay via emission with lifetimes between 3-4 ns as confirmed by time-resolved fluorescence (TRF) spectroscopy. The spectral shape of the transient species is generally maintained throughout their lifetimes, implying that the dynamics in each dye all occur on a single electronic excited state (S1) prior to emission. The spectral shifts at early times may arise due to excited-state symmetry breaking^77-78 in the quadrupolar dyes, wherein fluctuations in the instantaneous electrostatic environment afforded by the solvent transiently favor wavefunction localization on one side of the symmetric molecule, creating an excited state with a large dipole moment that is associated with the Stokes shift observed^79 in the fluorescence spectra. This localization can lead to changes in the transient absorption spectra as a result of the breakdown^42,80 of the Laporte rule. The shifts at longer times may arise from solvent or structural relaxation of the dyes.
Steady-state and time-resolved emission spectra for dyes 1-6, 7·2PF6 and 9·4PF6 were acquired using a HORIBA Fluorolog-3 spectrofluorometer, equipped with a time-correlated single photon counting (TCSPC) module (diode laser excitation at λ=375 nm) and an integrating sphere, which was used for absolute photo-luminescence quantum yield determinations. Picosecond time-resolved fluorescence measurements were recorded using a commercial direct-diode-pumped 100 kHz amplifier (Spirit 1040-HE, Spectra-Physics), producing a fundamental beam of 1040 nm (350 fs, 12 W) which was used to pump a non-collinear optical parametric amplifier (Spirit-NOPA, SpectraPhysics) capable of delivering tunable, high-repetition-rate pulses with pulse widths as short as sub-20 fs. Dyes 1-6, 7·2PF6 and 9·4PF6 were excited with 350 nm, 2 nJ laser pulses. Fluorescence was detected using a Hamamatsu C4780 Streakscope as previously described in the literature. Samples were prepared in 2-mm quartz cuvettes. All data were acquired in the single-photon-counting mode using the Hamamatsu HPD-TA software. The temporal resolution was approximately 2% of the sweep window. Single wavelength kinetic analysis was performed using a nonlinear least-squares fit to a sum of exponentials convoluted with an instrument response function. Visible and near-infrared femtosecond and nanosecond transient absorption (fsTA and nsTA, respectively) spectroscopies were performed following descriptions already recorded in the literature. The 330 nm, ˜100 fs pump pulses were generated at 1 μJ per pulse using a commercial collinear optical parametric amplifier (TOPAS-Prime, Light-Conversion, Ltd.); 414-nm pump pulses were obtained by second-harmonic generation of the 828 nm fundamental. The pump polarization was randomized using a commercial depolarizer (DPU-25-A, Thorlabs, Inc.) to eliminate any orientational dynamics resulting from the experiment. Spectra were collected on commercial spectrometers (customized Ultrafast Systems Helios and EOS spectrometers, for fsTA and nsTA, respectively) for each time window. All samples were stirred to avoid localized heating or degradation effects. The optical density was maintained at 0.6 for all samples. […]

[3] = Absolute fluorescence quantum yield (integrating sphere); conditions: in MeCN
Experimental: (§1) Fluorescent dyes were dissolved in the appropriate solvents to afford 1 mM solutions prior to spectroscopic analysis. A portion of 30 μL of a 1 mM solution was diluted by adding a selected solvent to a sample with a total volume of 3000 μL, affording a 1×10^−5 M solution. UV/Vis Absorption spectra were recorded in glass cuvettes on a UV-3600 Shimadzu spectrophotometer. Steady-state emission spectra were acquired in quartz cuvettes with optical path-lengths of 10 mm containing the solution being analyzed using a HORIBA Fluoromax4 spectrofluorometer, which was equipped with an integrating sphere for determining the absolute photoluminescence quantum yield.
Steady-state and time-resolved emission spectra for dyes 1-6, 7·2PF6 and 9·4PF6 were acquired using a HORIBA Fluorolog-3 spectrofluorometer, equipped with a time-correlated single photon counting (TCSPC) module (diode laser excitation at λ=375 nm) and an integrating sphere, which was used for absolute photo-luminescence quantum yield determinations. Picosecond time-resolved fluorescence measurements were recorded using a commercial direct-diode-pumped 100 kHz amplifier (Spirit 1040-HE, Spectra-Physics), producing a fundamental beam of 1040 nm (350 fs, 12 W) which was used to pump a non-collinear optical parametric amplifier (Spirit-NOPA, SpectraPhysics) capable of delivering tunable, high-repetition-rate pulses with pulse widths as short as sub-20 fs. Dyes 1-6, 7·2PF6 and 9·4PF6 were excited with 350 nm, 2 nJ laser pulses. Fluorescence was detected using a Hamamatsu C4780 Streakscope as previously described in the literature. Samples were prepared in 2-mm quartz cuvettes. All data were acquired in the single-photon-counting mode using the Hamamatsu HPD-TA software. The temporal resolution was approximately 2% of the sweep window. Single wavelength kinetic analysis was performed using a nonlinear least-squares fit to a sum of exponentials convoluted with an instrument response function. Visible and near-infrared femtosecond and nanosecond transient absorption (fsTA and nsTA, respectively) spectroscopies were performed following descriptions already recorded in the literature. The 330 nm, ˜100 fs pump pulses were generated at 1 μJ per pulse using a commercial collinear optical parametric amplifier (TOPAS-Prime, Light-Conversion, Ltd.); 414-nm pump pulses were obtained by second-harmonic generation of the 828 nm fundamental. The pump polarization was randomized using a commercial depolarizer (DPU-25-A, Thorlabs, Inc.) to eliminate any orientational dynamics resulting from the experiment. Spectra were collected on commercial spectrometers (customized Ultrafast Systems Helios and EOS spectrometers, for fsTA and nsTA, respectively) for each time window. All samples were stirred to avoid localized heating or degradation effects. The optical density was maintained at 0.6 for all samples.
Steady-state and time-resolved emission spectra for dyes 7·2PF6 and 9·4PF6 were acquired using a HORIBA Fluorolog-3 spectrofluorometer, equipped with a time-correlated single photon counting (TCSPC) module (diode laser excitation at =375 nm) and an integrating sphere, which was used for absolute photo-luminescence quantum yield determinations. Picosecond time-resolved fluorescence measurements were recorded using a commercial direct-diode-pumped 100 kHz amplifier (Spirit 1040-HE, Spectra-Physics), producing a fundamental beam of 1040 nm (350 fs, 12 W) which was used to pump a non-collinear optical parametric amplifier (Spirit-NOPA, SpectraPhysics) capable of delivering tunable, high-repetition-rate pulses with pulse widths as short as sub-20 fs. The samples 7·2PF6 and 9·4PF6 were excited with […], 2 nJ laser pulses. Fluorescence was detected using a Hamamatsu C4780 Streakscope as previously described in the literature.^71 Samples were prepared in 2-mm quartz cuvettes. All data were acquired in the single-photon-counting mode using the Hamamatsu HPD-TA software. […]

[4] = Steady-state UV/Vis absorption and fluorescence emission spectra; conditions: THF, 10 μM
Experimental: Fluorescent dyes 1-6, 7·2PF6, 8·2PF6, 9·4PF6 and 9·4Cl were dissolved in THF (1-5), MeCN (6, 7·2PF6, 8·2PF6 and 9.4PF6) and H2O (9.4Cl), respectively, to afford 10 μM solutions prior to spectroscopic analysis. For comparison, their normalized (i) UV/Vis absorption (FIG. 2) and (ii) the fluorescence emission (FIG. 3) spectra of quadrupolar dyes are overlayed, displaying a large range of S1 absorbance and emission maxima, which rely highly on their quadrupolarity that is correlated to the electron-deficiency of the ARs.
as §1

[5] = Transient absorption (fsTA/nsTA) and time-resolved fluorescence spectroscopy; conditions: in PhMe

| Structure (SMILES) | solubility in polar organic solvents (Solubility (qualitative)) | ΦF in the solid-state (powder) [1] | excited-state (emissive) lifetime [2] | rate constant k1 from TA data [2] | rate constant k2 from TA data [2] | rate constant k3 from TA data [2] | rate constant k4 from TA data [2] | non-radiative decay rate constant kNR [2] | radiative decay rate constant kR [2] | Quantum Yield (ΦF) [3] | UV absorption band centre [4] | emission λem [4] | triplet state lifetime (diffusional quenching-limited) ([5]; deaerated solution) | CT state decay to triplet state ([5]; excited at 350 nm) | S1 state decay time ([5]; excited at 350 nm) | CT state decay back to the ground state ([2]; excited at 350 nm) | initially excited state (S1) decay time ([2]; excited at 350 nm) | non-radiative decay rate constant kNR ([2]; kobs = k1) |
| --- | --- | --- | --- | --- | --- | --- | --- | --- | --- | --- | --- | --- | --- | --- | --- | --- | --- | --- |
| COc1cc2c(OC)cc1-c1cc[n+](cc1)Cc1ccc(cc1)C[n+]1ccc(cc1)-c1cc(OC)c(cc1OC)-c1cc[n+](cc1)Cc1ccc(cc1)C[n+]1ccc-2cc1 [9·4PF6] | readily soluble | 0.030±0.005 | 3.45±0.01 ns | (1.4 ± 0.3 ps)^−1 (ps)^−1 | (188 ± 4 ps)^−1 (ps)^−1 | (3.45 ± 0.01 ns)^−1 (ns)^−1 | (450 ± 70 ns)^−1 (ns)^−1 | (4.79 ± 0.03 ns)^−1 (ns)^−1 | (12.3 ± 0.2 ns)^−1 (ns)^−1 | 0.28 | – | – | – | – | – | – | – | – |
| CCCCCCCCOc1cc(-c2ccc(F)cc2)c(OCCCCCCCC)cc1-c1ccc(F)cc1 [Dye 1] | – | – | – | (5.4 ± 0.6 ps)^−1 (ps)^−1 | (83 ± 7 ps)^−1 (ps)^−1 | (3.38 ± 0.03 ns)^−1 (ns)^−1 | (155 ± 3 ns)^−1 (ns)^−1 | (3.89 ± 0.02 ns)^−1 (ns)^−1 | – | 0.13 | 316 nm | 380 nm | – | – | – | – | – | – |
| CCCCCCCCOc1cc(-c2ccc(C(F)(F)F)cc2)c(OCCCCCCCC)cc1-c1ccc(C(F)(F)F)cc1 [Dye 2] | – | – | – | (1.4 ± 0.3 ps)^−1 (ps)^−1 | (85 ± 2 ps)^−1 (ps)^−1 | (3.16 ± 0.01 ns)^−1 (ns)^−1 | (150 ± 2 ns)^−1 (ns)^−1 | (7.2 ± 0.1 ns)^−1 (ns)^−1 | (5.64 ± 0.05 ns)^−1 (ns)^−1 | 0.56 | – | – | – | – | – | – | – | – |
| CCCCCCCCOc1cc(-c2ccc(C#N)cc2)c(OCCCCCCCC)cc1-c1ccc(C#N)cc1 [Dye 3] | – | – | – | (0.8 ± 0.3 ps)^−1 (ps)^−1 | (99 ± 2 ps)^−1 (ps)^−1 | (4.23 ± 0.02 ns)^−1 (ns)^−1 | (314 ± 1 ns)^−1 (ns)^−1 | (22.3 ± 0.6 ns)^−1 (ns)^−1 | (5.22 ± 0.03 ns)^−1 (ns)^−1 | 0.81 | – | – | – | – | – | – | – | – |
| CCCCCCCCOc1cc(-c2ccc(C(=O)OC)cc2)c(OCCCCCCCC)cc1-c1ccc(C(=O)OC)cc1 [Dye 4] | – | – | – | (0.7 ± 0.3 ps)^−1 (ps)^−1 | (132 ± 7 ps)^−1 (ps)^−1 | (3.80 ± 0.01 ns)^−1 (ns)^−1 | (210 ± 2 ns)^−1 (ns)^−1 | (17.3 ± 0.4 ns)^−1 (ns)^−1 | – | 0.78 | – | – | – | – | – | – | – | – |
| CCCCCCCCOc1cc(-c2ccc([N+](=O)[O-])cc2)c(OCCCCCCCC)cc1-c1ccc([N+](=O)[O-])cc1 [Dye 5] | – | – | – | (4.3 ± 0.3 ps)^−1 (ps)^−1 | (28 ± 2 ps)^−1 (ps)^−1 | (102.7 ± 0.3 ns)^−1 (ns)^−1 | – | – | <(0.9 ns)^−1 (ns)^−1 | <0.005 | – | – | 1 µs | 18 ns | 7.9±0.3 ps | 102 ns | 4.3±0.3 ps | >(4 ps)^−1 (ps)^−1 |
| COc1cc(-c2ccncc2)c(OC)cc1-c1ccncc1 [Dye 6] | – | – | – | (0.6 ± 0.3 ps)^−1 (ps)^−1 | (52 ± 1 ps)^−1 (ps)^−1 | (4.05 ± 0.02 ns)^−1 (ns)^−1 | (163 ± 2 ns)^−1 (ns)^−1 | (11.0 ± 0.2 ns)^−1 (ns)^−1 | (6.43 ± 0.05 ns)^−1 (ns)^−1 | 0.63 | – | – | – | – | – | – | – | – |
